The test system of the assay is AMP-activated protein kinase (AMPK). Kind of assay: p-AMPK expression level in L6 cell line by Western blot. The class given is cell-based. Conditions: L6 cells, 2 hours compound treatment. How it is done: Evaluation of p-AMPK and p-ACC expression level in L6 cell line by Western-Blot
This method evaluates the changes of AMP-activated protein kinase (AMPK) and ACC (acetyl-CoA carboxylase) activity by small molecular modulators through detecting the level of p-AMPK and p-ACC proteins in L6 cells using Western blot.
L6 cells are maintained in DMEM medium supplemented with 10% FBS in 10-cm dishes. Prior to compounds treatment, L6 cells are seeded in 12-well-plates at concentration of 3×10^4 cells per well. After 24 hours of incubation in 12-well plates, L6 cells are differentiated by replacing the 10% FBS-DMEM medium with 2% FBS-DMEM. Differentiation usually takes 5 days, during which the culture medium is changed every 2 days.
The compound concentrations typically range from 32 μM to 0.5 μM with 2-fold dilution in 2 ml DMEM and 7 doses. The final DMSO concentration is 0.4%. Berberine is used as a positive control at concentration of 16 μM. Before compound treatment, starve L6 cells for 2 hours by replacing the medium with DMEM, and then gently aspirate the media from each well. Add the compounds into the plates and incubate at 37 degree 5% CO2 for 2 hours.
Prepare lysis buffer (RIPA buffer with protease-inhibitors and phosphorate-inhibitors) and place it on ice. After two hour's compound treatment, aspirate the medium from 12-well plates, add 70 ul lysis buffer to each well and keep the plates on ice for 5 min. Then scrape the cell lysate off the plates and transfer it to 1.5 ml eppendorf tubes. Keep the tube on ice for more 10 min, centrifugate the lysate at 13000 rpm, 4 degrees for 15 min and transfer the supernatant to clean tubes.
Determine protein concentration for each sample using Quickstart Bradford protein quantitation kit. Mix 20 ug protein sample with 4 times loading buffer, heat them at 100° C. for 5 min, store the sample in −80° C. or perform Western blot assay directly. For Western blot assay, load 20 ug samples and 10 ul Pre-stained Protein Maker into 4-12% SDS-PAGE gradient gel. Run the samples at 100 V in the stacking gel and at 120 V in resolving gel until the Bromophenol dye reaches the bottom. Transfer the electrophoresed proteins to a PVDF membrane using Bio-Rad's Transblot for 120 min at 300 mA. Following the completion of transfer, the membrane is blocked with 5% non-fat milk for 2 hours at room temperature before incubated with primary antibody (p-AMPK and p-ACC) at 4° C. overnight. On the next day wash the membrane twice with TBST, add secondary antibody and incubate for 1 hour at room temperature. Wash the membrane twice with TBST. Develop p-AMPK and p-ACC protein expression level on the film in dark room with Amersham ECL plus kit. The bands of each sample are quantitated by Bio-Rad system, The AC1.3 value is analyzed using Prism 5.0.

Structures are written as SMILES.

Take `CC1(C)CC(c2cccc(N3CCOC3=O)c2)Nc2c(C(=O)NS(C)(=O)=O)cc(Cl)cc21` (stereo not shown) [Example 64, N-{6-chloro-4,4-dimethyl-2-[3-(2-oxo-oxazolidin-3-yl)-phenyl]-1,2,3,4-tetrahydro-quinoline-8-carbonyl}-methanesulfonamide]: the “Activity AC1.3 (AMPKp)” value stood at 0.1 µM.

As to `CC1(C)CC(c2ccc(F)c(Cl)c2)Nc2ccc(C(=O)NS(C)(=O)=O)nc21` (stereo not shown) [Example 81, N-[6-(3-chloro-4-fluoro-phenyl)-8,8-dimethyl-5,6,7,8-tetrahydro-[1,5]naphthyridine-2-carbonyl]-methanesulfonamide], the “Activity AC1.3 (AMPKp)” value stood at 0.43 µM.

Regarding `CC(C)(Nc1cccc(C2CC(C)(C)c3cc(S(=O)(=O)N4CCOCC4)ccc3N2)c1)C(=O)O` (stereo not shown) [Example 82, 2-{3-[4,4-Dimethyl-6-(morpholine-4-sulfonyl)-1,2,3,4-tetrahydro-quinolin-2-yl]-phenylamino}-2-methyl-propionic acid], the “Activity AC1.3 (AMPKp)” value stood at 0.02 µM.

In the case of `CN1CCN(c2cccc(C3CC(C)(C)c4cccc(C(=O)NS(C)(=O)=O)c4N3)c2)CC1` (stereo not shown) [Example 67, N-{4,4-dimethyl-2-[3-(4-methyl-piperazin-1-yl)-phenyl]-1,2,3,4-tetrahydro-quinoline-8-carbonyl}-methanesulfonamide], the “Activity AC1.3 (AMPKp)” value was determined as 0.02 µM.

Consider `CC1(C)CC(c2cncc(N3CCOCC3)c2)Nc2ccc(C(=O)NS(=O)(=O)C3CC3)cc21` (stereo not shown) [Example 54, Cyclopropanesulfonic acid [4,4-dimethyl-2-(5-morpholin-4-yl-pyridin-3-yl)-1,2,3,4-tetrahydro-quinoline-6-carbonyl]-amide], for which the “Activity AC1.3 (AMPKp)” value came to 0.03 µM.

On to `CC1(C)CC(c2cc(N3CCOCC3)ccc2Cl)Nc2ccc(C(=O)NS(=O)(=O)C3CC3)cc21` (stereo not shown) [Example 25, Cyclopropanesulfonic acid [2-(2-chloro-5-morpholin-4-yl-phenyl)-4,4-dimethyl-1,2,3,4-tetrahydro-quinoline-6-carbonyl]-amide], for which the “Activity AC1.3 (AMPKp)” value was determined as 0.21 µM.

On to `CC1(C)CC(c2cccc(C(N)=O)c2)Nc2ccc(C(=O)NS(=O)(=O)C3CC3)cc21` (stereo not shown) [Example 34, 3-(6-Cyclopropanesulfonylaminocarbonyl-4,4-dimethyl-1,2,3,4-tetrahydro-quinolin-2-yl)-benzamide], for which the “Activity AC1.3 (AMPKp)” value was 0.08 µM.

For the molecule `CN1CCN(c2cccc(C3CC(C)(C)c4cc(C(=O)NS(=O)(=O)C5CC5)ccc4N3)c2)CC1` (stereo not shown) [Example 51, Cyclopropanesulfonic acid {4,4-dimethyl-2-[3-(4-methyl-piperazin-1-yl)-phenyl]-1,2,3,4-tetrahydro-quinoline-6-carbonyl}-amide], the “Activity AC1.3 (AMPKp)” value came out at 0.18 µM.

For the molecule `Cc1cc(C(=O)NS(=O)(=O)C2CC2)cc2c1NC(c1cccc(N3CCOCC3)c1)CC2(C)C` (stereo not shown) [Example 66, Cyclopropanesulfonic acid [4,4,8-trimethyl-2-(3-morpholin-4-yl-phenyl)-1,2,3,4-tetrahydro-quinoline-6-carbonyl]-amide], the “Activity AC1.3 (AMPKp)” value turned out to be 12.8 µM.

On to `CC1(C)CC(c2cccc(N3CCCC3)c2)Nc2ccc(C(=O)NS(=O)(=O)C3CC3)cc21` (stereo not shown) [Example 52, Cyclopropanesulfonic acid [4,4-dimethyl-2-(3-pyrrolidin-1-yl-phenyl)-1,2,3,4-tetrahydro-quinoline-6-carbonyl]-amide], for which the “Activity AC1.3 (AMPKp)” value was determined as 0.55 µM.

On to `Cc1ccc(N2CCOC2=O)cc1C1CC(C)(C)c2cc(C(=O)NS(=O)(=O)C3CC3)ccc2N1` (stereo not shown) [Example 28, Cyclopropanesulfonic acid {4,4-dimethyl-2-[2-methyl-5-(2-oxo-oxazolidin-3-yl)-phenyl]-1,2,3,4-tetrahydro-quinoline-6-carbonyl}-amide], for which the “Activity AC1.3 (AMPKp)” value came out at 0.02 µM.

Turning to `CC1(C)CC(c2cccc(N3CCOCC3)c2)Nc2ccc(C(=O)NS(=O)(=O)C3CC3)nc21` (stereo not shown) [Example 79, Cyclopropanesulfonic acid [8,8-dimethyl-6-(3-morpholin-4-yl-phenyl)-5,6,7,8-tetrahydro-[1,5]naphthyridine-2-carbonyl]-amide], the “Activity AC1.3 (AMPKp)” value was found to be 4.46 µM.

Consider `CS(=O)(=O)NC(=O)c1ccc2c(c1)C1(CCCC1)CC(c1cccc(N3CCOCC3)c1)N2` (stereo not shown) [Example 5, N-(methylsulfonyl)-2′-(3-morpholinophenyl)-2′,3′-dihydro-1′H-spiro[cyclopentane-1,4′-quinoline]-6′-carboxamide], for which the “Activity AC1.3 (AMPKp)” value worked out at 9 µM.

Turning to `Cc1ccc(N2CCN(c3cncc(C4CC(C)(C)c5cc(C(=O)NS(=O)(=O)C6CC6)ccc5N4)c3)CC2)c(C)c1` (stereo not shown) [Example 50, Cyclopropanesulfonic acid (2-{5-[4-(2,4-dimethyl-phenyl)-piperazin-1-yl]-pyridin-3-yl}-4,4-dimethyl-1,2,3,4-tetrahydro-quinoline-6-carbonyl)-amide], the “Activity AC1.3 (AMPKp)” value was determined as 0.16 µM.

As for `CC1(C)CC(c2cccc(NC3(C(=O)O)CC3)c2)Nc2ccc(S(=O)(=O)N3CCOCC3)cc21` (stereo not shown) [Example 83, 1-{3-[4,4-Dimethyl-6-(morpholine-4-sulfonyl)-1,2,3,4-tetrahydro-quinolin-2-yl]-phenylamino}-cyclopropanecarboxylic acid], the “Activity AC1.3 (AMPKp)” value turned out to be 0.01 µM.

Take `CC(C)(Nc1cc(F)cc(C2CC(C)(C)c3cc(S(=O)(=O)NC4CCC4)ccc3N2)c1)C(=O)O` (stereo not shown) [Example 86, 2-[3-(6-Cyclobutylsulfamoyl-4,4-dimethyl-1,2,3,4-tetrahydro-quinolin-2-yl)-5-fluoro-phenylamino]-2-methyl-propionic acid]: the “Activity AC1.3 (AMPKp)” value turned out to be 0.003 µM.

For `CC1(C)CC(c2cccc(C#N)c2)Nc2ccc(C(=O)NS(C)(=O)=O)cc21` (stereo not shown) [Example 33, N-[2-(3-cyano-phenyl)-4,4-dimethyl-1,2,3,4-tetrahydro-quinoline-6-carbonyl]-methanesulfonamide], the “Activity AC1.3 (AMPKp)” value worked out at 0.08 µM.

With `CC1(C)CC(c2ccc(F)c(Cl)c2)Nc2ccc(C(=O)NS(=O)(=O)C3CC3)nc21` (stereo not shown) [Example 78, Cyclopropanesulfonic acid [6-(3-chloro-4-fluoro-phenyl)-8,8-dimethyl-5,6,7,8-tetrahydro-[1,5]naphthyridine-2-carbonyl]-amide], the “Activity AC1.3 (AMPKp)” value was found to be 28.9 µM.

Consider `CC1(C)CC(c2cccc(C#N)c2)Nc2ccc(C(=O)NS(=O)(=O)C3CC3)cc21` (stereo not shown) [Example 35, Cyclopropanesulfonic acid [2-(3-cyano-phenyl)-4,4-dimethyl-1,2,3,4-tetrahydro-quinoline-6-carbonyl]-amide], for which the “Activity AC1.3 (AMPKp)” value stood at 0.24 µM.

Regarding `CN(C)c1cccc(C2CC(C)(C)c3cc(Cl)cc(C(=O)NS(=O)(=O)C4CC4)c3N2)c1` (stereo not shown) [Example 61, Cyclopropanesulfonic acid [6-chloro-2-(3-dimethylamino-phenyl)-4,4-dimethyl-1,2,3,4-tetrahydro-quinoline-8-carbonyl]-amide], the “Activity AC1.3 (AMPKp)” value is 0.1 µM.

Take `CC1(C)CC(c2cc(F)cc(NC3(C(=O)O)CC3)c2)Nc2ccc(S(=O)(=O)NC3CCC3)cc21` (stereo not shown) [Example 87, 1-[3-(6-Cyclobutylsulfamoyl-4,4-dimethyl-1,2,3,4-tetrahydro-quinolin-2-yl)-5-fluoro-phenylamino]-cyclopropanecarboxylic acid]: the “Activity AC1.3 (AMPKp)” value was 0.002 µM.

`CC1(C)CC(c2cccc(N3CCOCC3)c2)Nc2c(C(=O)NS(C)(=O)=O)cc(F)cc21` (stereo not shown) [Example 56, N-[6-fluoro-4,4-dimethyl-2-(3-morpholin-4-yl-phenyl)-1,2,3,4-tetrahydro-quinoline-8-carbonyl]-methanesulfonamide]: the “Activity AC1.3 (AMPKp)” value came out at 0.03 µM.

On to `Cc1ccc(N2CCN(c3cccc(C4CC(C)(C)c5cc(F)cc(C(=O)NS(C)(=O)=O)c5N4)c3)CC2)cc1` (stereo not shown) [Example 68, N-{6-fluoro-4,4-dimethyl-2-[3-(4-p-tolyl-piperazin-1-yl)-phenyl]-1,2,3,4-tetrahydro-quinoline-8-carbonyl}-methanesulfonamide], for which the “Activity AC1.3 (AMPKp)” value worked out at 0.003 µM.

For `CC1(C)CC(c2cccc(N3CCCC3)c2)Nc2c(C(=O)NS(C)(=O)=O)cc(Cl)cc21` (stereo not shown) [Example 71, N-[6-chloro-4,4-dimethyl-2-(3-pyrrolidin-1-yl-phenyl)-1,2,3,4-tetrahydro-quinoline-8-carbonyl]-methanesulfonamide], the “Activity AC1.3 (AMPKp)” value came out at 0.08 µM.

`CC1(C)CC(c2cccc(C(N)=O)c2)Nc2ccc(C(=O)NS(C)(=O)=O)cc21` (stereo not shown) [Example 32, 3-(6-Methanesulfonylaminocarbonyl-4,4-dimethyl-1,2,3,4-tetrahydroquinolin-2-yl)-benzamide]: the “Activity AC1.3 (AMPKp)” value is 0.002 µM.

Values taken from US8809369B2, “Tetrahydroquinoline derivatives” (Hoffmann-La Roche Inc., priority 2011, dated 2014).
